We go through three compounds from PMC5291163 (Journal of the American Chemical Society, 2016).

The conditions of data set [1]: ALP 1 U/mL, 24 h, PBS buffer pH 7.4.
The next data set has as its system active caspase3. To be noted: Saos2 cells, 50 µM, first 3 h of treatment.
A further data set has as its system HS5 cells. To be noted: 100 µM.
The test system of data set [2] is alkaline phosphatase (ALP). To be noted: substrate 0.1 wt%, ALP 0.1 U/mL.
Data set [3] is described as follows: TEM of nanostructures before and after addition of ALP. Type of data set: physicochemical. To be noted: 100 µM, before ALP.

Structures are written as SMILES. Like-named read-outs stand apart in the source and are kept apart here. Square brackets hold non-standard residues; d marks the D form. Peptide text beside a SMILES is read from it. * marks the point of attachment. Pentanoyl(5-PPh3+) = O=C(CCCC[P+](c1ccccc1)(c1ccccc1)c1ccccc1)*; d(pY) = N[C@H](Cc1ccc(OP(=O)(O)O)cc1)C(=O)O; pY = N[C@@H](Cc1ccc(OP(=O)(O)O)cc1)C(=O)O; NBD = O=[N+]([O-])c1ccc(*)c2nonc12; Cbz = O=C(OCc1ccccc1)*; βAla = NCCC(=O)O; CH2F = FC*

Take `O=C(CCCC[P+](c1ccccc1)(c1ccccc1)c1ccccc1)NCCCC[C@H](NC(=O)[C@H](Cc1ccc(OP(=O)(O)O)cc1)NC(=O)[C@H](Cc1ccccc1)NC(=O)[C@H](Cc1ccccc1)NC(=O)CCNc1ccc([N+](=O)[O-])c2nonc12)C(=O)O` [L-1P] ({NBD-βAla}-FF[pY]K(Pentanoyl(5-PPh3+))-OH): the “cell viability of unstimulated Saos2” value in the data set with Saos2 cells (50 µM, 48h) was found to be 71.7%. The “increase of the SLS signal after addition of ALP” value is reported as 120 fold in data set [1] (25 µM precursor), 48 fold in data set [1] (50 µM precursor), 18 fold in data set [1] (100 µM precursor) and 14 fold in data set [1] (200 µM precursor). For the same compound, the “expression level of active caspase3 relative to untreated cells” value in the data set with active caspase3 is reported as “changes little”. Also, the “cytotoxicity against HS5 cells” value in the data set with HS5 cells was “almost innocuous”. Also, the “percentage of enzymatic dephosphorylation after 24 h” value in data set [2] is recorded as about 80%. Further, the “t1/2 of ALP catalyzed dephosphorylation” value in data set [2] was 68.4 min.

In the case of `O=C(CCCC[P+](c1ccccc1)(c1ccccc1)c1ccccc1)NCCCC[C@@H](NC(=O)[C@@H](Cc1ccc(OP(=O)(O)O)cc1)NC(=O)[C@@H](Cc1ccccc1)NC(=O)[C@@H](Cc1ccccc1)NC(=O)CCNc1ccc([N+](=O)[O-])c2nonc12)C(=O)O` [D-1P] ({NBD-βAla}-[dF][dF][d(pY)][dK](Pentanoyl(5-PPh3+))-OH), the “increase of the SLS signal after addition of ALP” value is 43 fold in data set [1] (25 µM precursor), 10 fold in data set [1] (50 µM precursor), 8 fold in data set [1] (100 µM precursor) and 4 fold in data set [1] (200 µM precursor). Moreover, in the data set on active caspase3, the “expression level of active caspase3 relative to untreated cells” value is “about 1.7 fold”. Moreover, the “cytotoxicity against HS5 cells” value in the data set on HS5 cells is recorded as “almost innocuous”. In addition, the “percentage of enzymatic dephosphorylation after 24 h” value in data set [2] is given as “about 90%”. Moreover, in data set [2], the “t1/2 of ALP catalyzed dephosphorylation” value was 33 min. The “diameter of uniform nanoparticles (TEM)” value in data set [3] is listed as 25 ±2 nm.

With `COC(=O)C[C@H](NC(=O)[C@H](C)NC(=O)[C@@H](NC(=O)OCc1ccccc1)C(C)C)C(=O)CF` [zVAD-fmk, reference compound] (Cbz-Val-Ala-Asp(OMe)-CH2F), in the data set on Saos2 cells (45 µM), the “toxicity on Saos2 cells of the inhibitor itself” value is reported as “no toxicity”.
